{"source": "patent US20170348375A1", "about": "“DISLODGEMENT AND RELEASE OF HSC FROM THE BONE MARROW STEM CELL NICHE USING ALPHA9 INTEGRIN ANTAGONISTS” (COMMONWEALTH SCIENTIFIC AND INDUSTRIAL RESEARCH ORGANISATION, priority 2014, published 2017)", "key": {"[1]": {"target": "T1, human integrin α4β1 (Homo sapiens, UniProt P05556+P13612)", "T1 construct": "expressed in transfected cells; host or cells: human glioblastoma LN18 (ATCC CRL-2610), retrovirally transduced", "T1 sequence (P13612 34-1032)": "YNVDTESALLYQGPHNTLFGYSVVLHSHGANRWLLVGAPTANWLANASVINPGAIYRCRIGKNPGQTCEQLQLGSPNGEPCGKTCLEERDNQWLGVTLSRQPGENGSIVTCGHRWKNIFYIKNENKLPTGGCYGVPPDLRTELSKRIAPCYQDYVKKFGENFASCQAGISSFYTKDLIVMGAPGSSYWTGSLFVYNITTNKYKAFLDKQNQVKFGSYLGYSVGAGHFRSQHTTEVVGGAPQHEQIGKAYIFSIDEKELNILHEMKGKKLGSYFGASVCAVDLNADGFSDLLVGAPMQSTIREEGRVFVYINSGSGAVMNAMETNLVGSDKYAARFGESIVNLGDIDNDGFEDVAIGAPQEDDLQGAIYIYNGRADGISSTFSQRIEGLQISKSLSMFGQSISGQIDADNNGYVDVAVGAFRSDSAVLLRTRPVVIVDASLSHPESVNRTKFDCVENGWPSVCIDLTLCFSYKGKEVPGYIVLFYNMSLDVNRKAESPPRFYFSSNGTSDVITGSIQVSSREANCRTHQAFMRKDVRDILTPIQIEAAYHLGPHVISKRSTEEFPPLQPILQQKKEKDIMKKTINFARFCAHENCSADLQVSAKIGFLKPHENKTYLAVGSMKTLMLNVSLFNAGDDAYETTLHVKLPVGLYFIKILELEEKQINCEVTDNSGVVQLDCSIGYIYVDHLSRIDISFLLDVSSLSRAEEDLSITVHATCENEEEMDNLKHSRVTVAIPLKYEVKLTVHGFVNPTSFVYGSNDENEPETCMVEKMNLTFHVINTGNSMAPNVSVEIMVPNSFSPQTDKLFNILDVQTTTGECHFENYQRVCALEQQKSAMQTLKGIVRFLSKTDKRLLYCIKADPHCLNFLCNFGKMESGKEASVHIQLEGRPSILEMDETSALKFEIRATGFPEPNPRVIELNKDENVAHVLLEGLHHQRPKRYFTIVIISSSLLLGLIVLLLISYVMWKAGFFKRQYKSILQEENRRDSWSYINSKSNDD", "T1 sequence (P05556 21-798)": "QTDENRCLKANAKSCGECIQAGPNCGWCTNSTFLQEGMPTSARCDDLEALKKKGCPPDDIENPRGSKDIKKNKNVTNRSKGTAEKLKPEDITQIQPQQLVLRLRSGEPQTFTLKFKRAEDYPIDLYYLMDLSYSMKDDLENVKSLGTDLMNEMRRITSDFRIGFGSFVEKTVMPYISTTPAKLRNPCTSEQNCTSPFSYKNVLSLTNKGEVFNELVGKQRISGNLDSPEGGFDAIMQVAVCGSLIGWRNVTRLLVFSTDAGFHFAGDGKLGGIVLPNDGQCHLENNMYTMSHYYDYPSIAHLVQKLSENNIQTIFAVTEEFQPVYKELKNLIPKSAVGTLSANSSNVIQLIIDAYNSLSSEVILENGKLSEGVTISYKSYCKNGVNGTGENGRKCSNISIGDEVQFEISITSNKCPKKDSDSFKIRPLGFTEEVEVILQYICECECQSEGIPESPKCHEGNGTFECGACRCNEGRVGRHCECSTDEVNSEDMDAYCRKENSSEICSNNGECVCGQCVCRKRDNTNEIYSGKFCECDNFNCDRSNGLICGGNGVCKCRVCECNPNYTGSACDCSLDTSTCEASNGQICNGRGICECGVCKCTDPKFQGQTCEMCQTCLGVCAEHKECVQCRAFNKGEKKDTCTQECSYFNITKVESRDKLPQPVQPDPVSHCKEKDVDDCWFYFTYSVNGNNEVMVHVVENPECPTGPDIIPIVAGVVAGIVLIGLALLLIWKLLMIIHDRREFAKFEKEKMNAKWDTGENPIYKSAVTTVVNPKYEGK", "assay": "Saturation binding to α4β1 over-expressing LN18 cells (flow cytometry)", "conditions": "for Kd: α4β1 LN18 cells, read-out: Kd (dissociation constant), α4β1", "experimental": "(§1) Stable LN18 cells ((ATCC number: CRL-2610) over-expressing integrin α4β1 (LN18 α4β1) or α9β1 (LN18 α9β1)) were generated by retroviral transduction using the pMSCV-hITGA4-IRES-hITGB1 and pMSCV-hITGA9-IRES-hITGB1 vectors as previously described in J Grassinger, et al Blood, 2009, 114, 49-59 and were maintained in DMEM supplemented with 2 mM […] in 10% FBS. Transduced cells were selected by two rounds of FACS using 2.5 μg ml^−1 PE-Cy5-conjugated mouse-anti-human α4 antibody (BD Bioscience) or 20 μg ml^−1 of mouse-anti-human α9β1 antibody (Millipore) in PBS-2% FBS, followed by 0.5 μg ml^−1 of PE-conjugated goat-anti-mouse IgG (BD Bio-science). Silencing of α4 expression in LN18 and LN18 α9β1 cells was performed as described above using pSM2c-shITGA4 (Open Biosystems). α4-silenced LN18 cells (control cell line; LN18 SiA4) and LN18 α9β1 (LN18 α9β1SiA4) were negatively selected for α4 expression using FACS.\n(§2) The cells were incubated at 37° C. for 60 min, washed once with TBS-2% FBS, dry pelleted and resuspended in the relevant binding buffer for flow cytometric analysis. Mean channel fluorescence was plotted against concentration and fitted to a one-site saturation ligand binding curve using GraphPad Prism 6. The dissociation constant, Kd was determined from the curves."}, "[2]": {"target": "T2, human integrin α9β1 (Homo sapiens, UniProt P05556+Q13797)", "T2 construct": "expressed in transfected cells; host or cells: human glioblastoma LN18 (ATCC CRL-2610), retrovirally transduced; α4 silenced with pSM2c-shITGA4", "T2 sequence (Q13797 30-1035)": "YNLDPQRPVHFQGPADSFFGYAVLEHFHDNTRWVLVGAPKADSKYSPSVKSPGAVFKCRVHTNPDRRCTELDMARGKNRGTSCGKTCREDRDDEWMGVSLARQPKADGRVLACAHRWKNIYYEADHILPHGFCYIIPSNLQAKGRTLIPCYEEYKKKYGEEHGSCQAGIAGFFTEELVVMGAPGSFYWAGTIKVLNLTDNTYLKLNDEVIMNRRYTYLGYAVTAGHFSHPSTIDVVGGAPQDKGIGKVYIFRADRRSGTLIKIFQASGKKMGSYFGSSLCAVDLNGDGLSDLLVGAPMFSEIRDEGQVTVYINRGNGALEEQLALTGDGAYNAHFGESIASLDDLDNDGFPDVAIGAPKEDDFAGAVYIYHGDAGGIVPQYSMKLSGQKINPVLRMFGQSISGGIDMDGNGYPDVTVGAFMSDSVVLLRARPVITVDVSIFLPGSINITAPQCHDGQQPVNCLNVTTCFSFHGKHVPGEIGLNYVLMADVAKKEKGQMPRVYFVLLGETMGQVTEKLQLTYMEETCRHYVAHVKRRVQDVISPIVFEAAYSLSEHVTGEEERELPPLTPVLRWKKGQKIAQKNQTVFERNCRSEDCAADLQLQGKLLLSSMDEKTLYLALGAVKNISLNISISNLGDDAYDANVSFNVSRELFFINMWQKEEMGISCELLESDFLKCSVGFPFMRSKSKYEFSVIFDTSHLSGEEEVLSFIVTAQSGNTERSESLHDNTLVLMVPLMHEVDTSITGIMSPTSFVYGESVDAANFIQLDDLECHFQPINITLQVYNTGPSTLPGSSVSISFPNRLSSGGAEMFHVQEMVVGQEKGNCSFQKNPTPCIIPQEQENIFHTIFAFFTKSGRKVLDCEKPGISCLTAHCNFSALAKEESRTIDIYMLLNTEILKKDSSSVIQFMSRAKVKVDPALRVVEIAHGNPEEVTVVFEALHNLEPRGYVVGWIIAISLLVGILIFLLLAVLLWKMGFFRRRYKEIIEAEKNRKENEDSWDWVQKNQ", "T2 sequence (P05556 21-798)": "as the sequence (P05556 21-798) above", "assay": "Saturation binding to α9β1 over-expressing LN18 cells (flow cytometry)", "conditions": "for Kd: α9β1 LN18 cells, read-out: Kd (dissociation constant), α9β1", "experimental": "as §1, §2"}, "[3]": {"test_system": "control LN18 cells (LN18 SiA4)", "assay": "Saturation binding to control LN18 cells (no integrins)", "design": "species or system human", "conditions": "1 mM Ca2+/Mg2+", "experimental": "as §1, §2"}, "[4]": {"target": "T3, α4β1 integrin (Homo sapiens, UniProt P05556+P13612)", "T3 construct": "expressed in transfected cells; host or cells: human glioblastoma LN18 (ATCC CRL-2610), retrovirally transduced", "T3 sequence (P13612 34-1032)": "as the sequence (P13612 34-1032) above", "T3 sequence (P05556 21-798)": "as the sequence (P05556 21-798) above", "assay": "On-rate and off-rate kinetics of R-BC154 binding to α4β1 LN18 cells", "conditions": "for kobs / kon / koff: α4β1 cells; for kobs: 50 nM, 37° C., fast phase; for kon: (kobs − koff)/50 nM", "experimental": "(§3) Mean channel fluorescence was plotted against time and the data was fitted to either a one-phase or two-phase exponential decay function using GraphPad Prism 6. The off-rate, koff was extrapolated from the curves.\n(§4) Eppendorf vials containing α4β1 or α9β1 LN18 cells (0.5×10^6 cells) in 50 μl TBS-2% FBS containing either 1 mM CaCl2—MgCl2 or 1 mM MnCl2 were pre-activated in a heating block for 20 min at 37° C. […] The cells were washed once TBS-2% FBS (with relevant cations), pelleted by centrifugation and resuspended (200 μl) in the relevant binding buffer for flow cytometric analysis. Mean channel fluorescence was plotted against time and the data was fitted to either a one-phase or two phase association function using GraphPad Prism 6. The observed on-rate, kobs was extrapolated from the curves and kon was calculated using […]"}, "[5]": {"target": "T4, α9β1 integrin (Homo sapiens, UniProt P05556+Q13797)", "T4 construct": "expressed in transfected cells; host or cells: human glioblastoma LN18 (ATCC CRL-2610), retrovirally transduced; α4 silenced with pSM2c-shITGA4", "T4 sequence (Q13797 30-1035)": "as the sequence (Q13797 30-1035) above", "T4 sequence (P05556 21-798)": "as the sequence (P05556 21-798) above", "assay": "On-rate and off-rate kinetics of R-BC154 binding to α9β1 LN18 cells", "conditions": "for kobs: 50 nM, 37° C., fast phase; for kon: (kobs − koff)/50 nM", "experimental": "as §3, §4"}, "[6]": {"test_system": "human cord blood mononuclear cells (MNC)", "assay": "In vitro R-BC154 binding to human cord blood mononuclear cells", "format": "cell-based", "experimental": "Mononuclear cells (MNC) were isolated from cord blood as previously described in Nilsson, S. K. et al Blood 106, 1232-1239, (2005) and Grassinger, J. et al. Blood 114, 49-59, (2009). MNCs were incubated with a lineage antibody cocktail containing mouse anti-human CD3, CD11b, CD14, CD16, CD20, CD24, and CD235a (BD) and then treated with two rounds of Dynal sheep anti-mouse IgG beads (Invitrogen, Carlsbad, Calif.) at a ratio of 2 beads per cell for 5 min and then 10 min at 4° C. with constant rotation. Enriched MNC were stained with CD34-fluorescein isothiocyanate (FITC) CD34^+ cells purified by FACS.\n(§5) Cells were washed with cold PBS (2% F BS) and then immunolabelled as described in “Antibody Cocktails” prior to flow cytometric analysis."}, "[7]": {"test_system": "bone marrow progenitor cells (LSK) and HSC (LSKSLAM)", "assay": "In vivo bone marrow binding assay", "design": "species or system mouse", "experimental": "After 5 min, bone marrow cells were isolated as previously described in D. N. Haylock et al Stem Cells, 2007, 25, 1062-1069 and J. Grassinger, et al Cytokine, 2012, 58, 218-225. Briefly, one femur, tibia and iliac crest were excised and cleaned of muscle. After removing the epi- and metaphyseal regions, bones were flushed with PBS-2% FBS to obtain whole bone marrow, which were washed with PBS-2% FBS and then immunolabelled for flow cytometry. […] For staining progenitor cells (LSK; Lineage−Sca-1^+c-kit^+) and HSC (LSKSLAM; LSKCD150+CD48−), cells were labelled with a lineage cocktail (CD3, Ter-119, Gr-1, Mac-1, B220; all antibodies APC-Cy7 conjugated), anti-Sca-1-PB, anti-c-kit-AF647, anti-CD48-FITC and anti-CD150-BV650.\nas §5\nSorted cells were imaged using an Olympus BX51 microscope."}, "[8]": {"test_system": "WBC, LSK and LSKSLAM in PB", "assay": "Mobilization of HSC and progenitors into peripheral blood", "format": "in vivo, mouse", "conditions": "R-BC154, s.c., 15 and 30 mins post-injection", "experimental": "For mobilization experiments, all mice received subcutaneous injections at 100 μl/10 gm body weight and PB was harvested by throat bleed using EDTA coated syringes."}}, "note": "Like-named read-outs stand apart in the source and are kept apart here."}
{"compound": "CCN(CC)c1ccc2c(-c3ccc(S(=O)(=O)NCc4cn(C5CC(C(=O)NC(Cc6ccc(OC(=O)N7CCCC7)cc6)C(=O)O)N(S(=O)(=O)c6ccccc6)C5)nn4)cc3S(=O)(=O)[O-])c3ccc(=[N+](CC)CC)cc-3oc2c1", "note": "(stereo not drawn) [R-BC154]", "values": [{"measurement": "Kd", "setting": "[1]; 1 mM Ca2+/Mg2+", "value": 38, "unit": "nM"}, {"measurement": "increase in binding affinity towards α4β1 under Mn2+ activation compared to Ca2+/Mg2+", "setting": "[1]; 1 mM Mn2+ vs Ca2+/Mg2+", "value": 3.1, "unit": "fold"}, {"measurement": "Kd", "setting": "[1]; 1 mM Mn2+", "value": 12.4, "unit": "nM"}, {"measurement": "reduction in binding affinity to α4β1 compared to compound 22", "setting": "[1]; Ca2+/Mg2+ conditions", "value": 1.9, "unit": "fold"}, {"measurement": "Kd", "setting": "[2]; 1 mM Ca2+/Mg2+", "value": 12.7, "unit": "nM"}, {"measurement": "Kd", "setting": "[2]; 1 mM Mn2+", "value": 14.4, "unit": "nM"}, {"measurement": "greater affinity for α9β1 than α4β1", "setting": "[2]; Ca2+/Mg2+ conditions", "value": 3, "unit": "fold"}, {"measurement": "reduction in binding affinity to α9β1 compared to compound 22", "setting": "[2]; Ca2+/Mg2+ conditions", "value": 1.5, "unit": "fold"}, {"measurement": "integrin binding in the absence of cations", "setting": "[2]; TBS buffer only, LN18 α9β1 cells (FIG. 4)", "value": "no integrin binding was observed"}, {"measurement": "binding to control cell line lacking integrin expression", "setting": "[3]", "value": "Virtually no binding"}, {"measurement": "R-BC154 still bound after 60 min", "setting": "[4]; α4β1, Mn2+, dissociation experiment", "value": "greater than 60%"}, {"measurement": "kobs", "setting": "[4]; 1 mM Ca2+/Mg2+", "value": 5.426, "unit": "min⁻¹"}, {"measurement": "kon", "setting": "[4]; 1 mM Ca2+/Mg2+", "value": "1.57e+06", "unit": "M⁻¹ s⁻¹"}, {"measurement": "koff", "setting": "[4]; 1 mM Ca2+/Mg2+, fast phase of two-phase dissociation curve", "value": 0.012, "unit": "s⁻¹"}, {"measurement": "koff", "setting": "[4]; 1 mM Mn2+", "value": 0.000233, "unit": "s⁻¹"}, {"measurement": "kobs", "setting": "[4]; 1 mM Mn2+", "value": 1.891, "unit": "min⁻¹"}, {"measurement": "kon", "setting": "[4]; 1 mM Mn2+", "value": 633000, "unit": "M⁻¹ s⁻¹"}, {"measurement": "off-rates for α9β1 compared to α4β1", "setting": "[5]; Example 2, FIG. 5c", "value": "significantly reduced off-rates"}, {"measurement": "R-BC154 still bound after 60 min", "setting": "[5]; α9β1, Mn2+, dissociation experiment", "value": "greater than 60%"}, {"measurement": "koff", "setting": "[5]; α9β1 cells, 1 mM Ca2+/Mg2+", "value": 0.0009, "unit": "s⁻¹"}, {"measurement": "kobs", "setting": "[5]; α9β1 cells, 1 mM Ca2+/Mg2+", "value": 3.117, "unit": "min⁻¹"}, {"measurement": "kon", "setting": "[5]; α9β1 cells, 1 mM Ca2+/Mg2+", "value": "1.02e+06", "unit": "M⁻¹ s⁻¹"}, {"measurement": "kobs", "setting": "[5]; α9β1 cells, 1 mM Mn2+", "value": 2.035, "unit": "min⁻¹"}, {"measurement": "kon", "setting": "[5]; α9β1 cells, 1 mM Mn2+", "value": "~670000", "unit": "M⁻¹ s⁻¹"}, {"measurement": "binding to human cord blood MNC", "setting": "[6]; 1 mM Ca2+/Mg2+ vs no cations", "value": "Divalent cation and dose dependent binding"}, {"measurement": "binding to CD34+CD38− cells versus other MNC populations", "setting": "[6]; activating conditions", "value": "greater binding was observed on stem cell enriched CD34^+CD38^− cells compared to lineage-committed CD34^− cells"}, {"measurement": "in vivo labelling of BM progenitor cells (LSK) and HSC (LSKSLAM)", "setting": "[7]; 10 mg kg−1 intravenously, C57 mice, vs un-injected mice", "value": "Increased cell-associated fluorescence"}, {"measurement": "binding to BM LSK after s.c. treatment", "setting": "[7]; 30 mins post-s.c.", "value": "persistent binding"}, {"measurement": "in vivo binding on α4−/−/α9−/− LSK cells", "setting": "[7]; conditional KO mice injected with R-BC154", "value": "No binding"}, {"measurement": "proportion of R-BC154hi LSK and LSKSLAM cells, endosteal vs central BM", "setting": "[7]; i.v. administration, C57Bl/6 mice", "value": "greater proportion of R-BC154^hi cells"}, {"measurement": "clearance following i.v. administration", "setting": "[7]; i.v., mice", "value": "< 5", "unit": "min"}, {"measurement": "binding on LSK in the PB compared to BM", "setting": "[7]; s.c. administration", "value": "Minimal binding"}, {"measurement": "number of WBC, LSK or LSKSLAM in PB", "setting": "[8]", "value": "not found to give significant increases"}]}
